Measurements: patent US9422240B2, “Partially saturated nitrogen-containing heterocyclic compound” (TAISHO PHARMACEUTICAL CO., LTD, priority 2012, dated 2016)
pIC50: −log10 of the molar value.

Experiments:
[1] = target: T1, human PHD2 (Homo sapiens (Human), UniProt Q9GZT9); experiment: Test 1: human PHD2 inhibitory activity, [14C]-2-oxoglutarate to [14C]-succinic acid radiometric assay with HIF-1α peptide; assay type: biochemical; conditions: test compound's concentration 1 μM; Test 1, [14C]-2-oxoglutarate radiometric assay; read-out: Percent inhibition (% at 1 μM)
T1 sequence (Q9GZT9 whole entry): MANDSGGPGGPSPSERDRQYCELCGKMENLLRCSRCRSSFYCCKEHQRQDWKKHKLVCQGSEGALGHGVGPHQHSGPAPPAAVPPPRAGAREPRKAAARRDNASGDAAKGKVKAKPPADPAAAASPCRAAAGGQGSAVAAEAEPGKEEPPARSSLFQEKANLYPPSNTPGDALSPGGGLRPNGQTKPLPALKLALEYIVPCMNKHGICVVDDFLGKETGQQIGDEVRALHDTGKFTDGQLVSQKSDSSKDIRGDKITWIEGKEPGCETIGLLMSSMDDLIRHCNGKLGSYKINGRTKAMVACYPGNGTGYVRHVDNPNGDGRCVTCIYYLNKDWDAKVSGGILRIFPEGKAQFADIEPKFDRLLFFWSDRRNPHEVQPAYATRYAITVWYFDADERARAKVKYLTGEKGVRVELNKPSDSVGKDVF
Outline: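 Activity was measured by radiometric counting of [14C]-succinic acid formed during prolyl hydroxylation of a 19-mer HIF-1α peptide, after DNPH removal of residual [14C]-2-oxoglutarate. Baculovirus-expressed human PHD2 lysate (4 μg/well) reacted for 15 min at 37° C. Substrate-free and compound-free wells served as reference points for inhibition.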

[2] = target: T1, human PHD2; experiment: Test 2: human PHD2 inhibitory activity, fluorescence polarization assay of HIF-1α peptide proline hydroxylation; assay type: biochemical; conditions: for pIC50: human PHD2, fluorescence polarization assay, 20-min incubation at 30° C.; for inhibition at 1 µM: test compound's concentration 1 μM, Test 2, fluorescence polarization assay, read-out: Percent inhibition (% at 1 μM)
Outline: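 A 19-mer HIF-1α peptide served as substrate, with the reaction started by 40 ng/well human PHD2 (cell lysate of NM_022051-transfected cells) and run 20 min at 30° C. before EDTA stop. Hydroxylated product bound anti-HIF-OH antibody, read by fluorescence polarization versus no-compound control.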

Structure (SMILES)	inhibition at 1 µM [1] [%]	pIC50 [2]	inhibition at 1 µM [2] [%]
O=C(O)CNC(=O)C1=C(O)CCN(Cc2ccc(Oc3ccc(Cl)cc3)cc2)C1=O [Ex. 1-265]	98	7.62	100
O=C(O)CNC(=O)C1=C(O)CC2(CC2)N(Cc2ccc(C3CC3)cc2)C1=O [Ex. 1-266]	83	–	89
O=C(O)CNC(=O)C1=C(O)CC2(CCC2)N(Cc2ccc(OCC3CC3)cc2)C1=O [Ex. 1-267]	81	–	86
Cc1c(CN2CCC(O)=C(C(=O)NCC(=O)O)C2=O)cnn1-c1ccccc1 [Ex. 1-268]	78	–	85
O=C(O)CNC(=O)C1=C(O)CCN(Cc2ccc3c(c2)CCC3)C1=O [Ex. 1-269]	85	–	89
O=C(O)CNC(=O)C1=C(O)CCN(Cc2ccc3sccc3c2)C1=O [Ex. 1-270]	88	–	90
O=C(O)CNC(=O)C1=C(O)CCN(Cc2ccc(OC3CCCC3)cc2)C1=O [Ex. 1-271]	91	–	91
CC1(C)CC(O)=C(C(=O)NCC(=O)O)C(=O)N1Cc1ccc(OC2CCCC2)cc1 [Ex. 1-272]	65	–	82
Cc1ccc(Oc2ccc(CN3CCC(O)=C(C(=O)NCC(=O)O)C3=O)cc2)cn1 [Ex. 1-273]	99	6.95	92
O=C(O)CNC(=O)C1=C(O)CCN(Cc2ccc(Oc3ccccc3F)nc2)C1=O [Ex. 1-274]	92	6.97	94
Cc1ccccc1Oc1ccc(CN2CCC(O)=C(C(=O)NCC(=O)O)C2=O)cn1 [Ex. 1-275]	85	7.00	94
Cc1ccc(Oc2ccc(CN3CC(C)(C)C(O)=C(C(=O)NCC(=O)O)C3=O)cn2)cc1 [Ex. 1-276]	93	–	92
Cc1ccc(Oc2ccc(CN3CC4(CC4)C(O)=C(C(=O)NCC(=O)O)C3=O)cn2)cc1 [Ex. 1-277]	108	–	97
Cc1ccc(Oc2ccc(CN3CC4(CCC4)C(O)=C(C(=O)NCC(=O)O)C3=O)cn2)cc1 [Ex. 1-278]	93	–	94
O=C(O)CNC(=O)C1=C(O)C2(CC2)CN(Cc2ccc(OCC3CC3)cc2)C1=O [Ex. 1-279]	90	–	91
Cc1ccc(Oc2ccc(CN3C(=O)C(C(=O)NCC(=O)O)=C(O)CC34CCC4)cn2)cc1 [Ex. 1-280]	109	–	98
CC1(C)CC(O)=C(C(=O)NCC(=O)O)C(=O)N1Cc1csc(-c2ccccc2)n1 [Ex. 1-281]	70	–	77
O=C(O)CNC(=O)C1=C(O)CCN(Cc2ccc(Oc3ccccc3F)cc2)C1=O [Ex. 1-282]	101	7.11	99
Cc1ccccc1Oc1ccc(CN2CCC(O)=C(C(=O)NCC(=O)O)C2=O)cc1 [Ex. 1-283]	99	7.20	97
O=C(O)CNC(=O)C1=C(O)CCN(Cc2ccc(Oc3cccc(Cl)c3)nc2)C1=O [Ex. 1-284]	107	7.40	103
O=C(O)CNC(=O)C1=C(O)CCN(Cc2ccc(Oc3cccc(C(F)(F)F)c3)nc2)C1=O [Ex. 1-285]	106	7.37	100
COc1cccc(Oc2ccc(CN3CCC(O)=C(C(=O)NCC(=O)O)C3=O)cc2)c1 [Ex. 1-286]	95	7.21	96

Structure (SMILES)	inhibition at 1 µM [1] [%]	pIC50 [2]	inhibition at 1 µM [2] [%]
O=C(O)CNC(=O)C1=C(O)CCN(Cc2ccc(Oc3cccc(OC(F)(F)F)c3)nc2)C1=O [Ex. 1-287]	94	7.35	104
O=C(O)CNC(=O)C1=C(O)CCN(Cc2ccc(Oc3ccc(F)cn3)cc2)C1=O [Ex. 1-288]	90	6.84	91
O=C(O)CNC(=O)C1=C(O)CCN(Cc2ccc(Oc3ccc(Cl)cn3)cc2)C1=O [Ex. 1-289]	95	7.17	98
O=C(O)CNC(=O)C1=C(O)CCN(Cc2ccccc2Oc2ccc(F)cc2)C1=O [Ex. 1-290]	63	–	86
O=C(O)CNC(=O)C1=C(O)CCN(Cc2ccc(OCC(F)(F)F)cc2)C1=O [Ex. 1-291]	75	–	86
O=C(O)CNC(=O)C1=C(O)CCN(Cc2ccc(OCC(F)(F)F)c(F)c2)C1=O [Ex. 1-292]	83	–	86
CC1(C)CC(O)=C(C(=O)NCC(=O)O)C(=O)N1Cc1cnc(-c2ccccc2)[nH]1 [Ex. 1-293]	35	–	33
CC1(C)CC(O)=C(C(=O)NCC(=O)O)C(=O)N1Cc1nc(-c2ccccc2)cs1 [Ex. 1-294]	51	–	68
CC1(C)CC(O)=C(C(=O)NCC(=O)O)C(=O)N1Cc1coc(-c2ccccc2)n1 [Ex. 1-295]	63	–	74
O=C(O)CNC(=O)C1=C(O)CCN(Cc2ccc(Oc3ccc(C4CC4)cc3)nc2)C1=O [Ex. 1-296]	100	7.82	102
Cc1ccc(Oc2ccc(CN3CCC(O)=C(C(=O)NCC(=O)O)C3=O)cc2)nc1 [Ex. 1-297]	86	7.05	94
O=C(O)CNC(=O)C1=C(O)CCN(Cc2ccc(Oc3ccc(C(F)(F)F)cn3)cc2)C1=O [Ex. 1-298]	84	7.10	94
Cn1nc(-c2ccccc2)cc1CN1C(=O)C(C(=O)NCC(=O)O)=C(O)CC1(C)C [Ex. 1-299]	47	–	64
Cn1nc(CN2C(=O)C(C(=O)NCC(=O)O)=C(O)CC2(C)C)cc1-c1ccccc1 [Ex. 1-300]	30	–	43
Cc1nc(-c2ccccc2)oc1CN1C(=O)C(C(=O)NCC(=O)O)=C(O)CC1(C)C [Ex. 1-301]	56	–	75
CC1(C)CN(Cc2ccc(OCC3CC3)cc2)C(=O)C(C(=O)NCC(=O)O)=C1O [Ex. 1-302]	61	–	79
Cc1ccc(Oc2ccc(CN3C(=O)C(C(=O)NCC(=O)O)=C(O)CC34CC4)cn2)cc1 [Ex. 1-303]	102	–	100
CC1(C)CN(Cc2ccc(OC(F)(F)F)c(Cl)c2)C(=O)C(C(=O)NCC(=O)O)=C1O [Ex. 1-304]	35	–	72
Cc1ccc(COc2ccc(CN3CCC(O)=C(C(=O)NCC(=O)O)C3=O)cc2)cc1 [Ex. 1-305]	94	–	97
O=C(O)CNC(=O)C1=C(O)CCN(Cc2ccc(OCc3cccc(Cl)c3)cc2)C1=O [Ex. 1-306]	94	–	99
O=C(O)CNC(=O)C1=C(O)CCN(C2CCCCC2)C1=O [Ex. 1-307]	51	–	60
